# Columns and labels:
# Type in all cases: cell-based
# [1] = test system: HIV-1; assay: SuperFluids CFI decontamination of medical devices (MDV experiments), residual virus by TCID50; conditions: medical device components such as N95 masks
# Method: Virus was eluted from control (black bars) and treated (white bars) beads by incubating them with 1 ml of growth media for 30 minutes at room temperature. The amount of HIV p24 in the eluate was measured in an ELISA.
# The decontamination device prototype can be run in two modes: dynamic and static. In the static mode, virus-coated N95 face masks and other PPEs were placed in the CFI™ chamber and contacted with the SuperFluids™ for a specific amount of time at a specified pressure and temperature. The CFI™ chamber is be then rapidly exhausted into the expansion chamber. In the dynamic mode, SuperFluids™ is continuously flowed over the virus-coated glass beads at a rate of 20 mL/min, and slowly exhausted at the end of the experiment.
# [2] = test system: EMC; assay: CFI virus inactivation of EMC in a FBS matrix; conditions: 50° C., 3,000 psig, previous data
# Method: Since Freon-22 use and production may be adversely impacted by future environmental concerns, we evaluated alternate refrigerants. Per the listing of thermodynamic properties in Table 1, Freon-23 (trifluoromethane) appears to be an excellent CFI™ candidate because: (i) it is non-chlorinated (the chlorine component of chlorofluorocarbons is thought to be responsible for their negative impact on the ozone layer): (ii) it has a low critical temperature of 25.9° C. (allows operation close to critical conditions while minimizing thermal denaturation of heat sensitive materials); and (iii) it has a relatively large dipole moment of 1.6 Debye (a large potential of solubilizing polar lipids and fats). From a comparison of previous data on the CFI™ virus inactivation of EMC in a FBS matrix, Freon-23 appears to be the best alternate to Freon-22. On the average, Freon-23 inactivated ˜3 logs vs. ˜6 logs of EMC at similar conditions of temperature (50° C.) and pressure (3,000 psig).
# [3] = test system: murine leukemia virus (MuLV); assay: CFI inactivation of murine leukemia virus at conditions of almost identical density; conditions: 1,000 psig and 10° C., 2,000 psig and 22° C. and 4,000 psig and 40° C.
# Method: Temperature. In preliminary studies, all experiments were conducted at or around room temperature in order to maximize the […] of the time and temperature control. Under these conditions, most of the CFI experiments were conducted at sub-critical conditions that may not be optimal for virus inactivation. Temperature will have an impact on both the thermodynamic properties of the SuperFluids™, the configurational structure of the virus, and the integrity of the PPEs and SUDs. Temperature with pressure defines the density of SuperFluids™, and their solvation capacities and expansion factors; the former impacts viral kill by a phospholipid solubilization mechanism and the latter by an explosive decompression mechanism. […] CFI™ technology thus favors lower temperatures, which are better for material integrity. Lowering the temperature often requires the lowering of pressure because density is directly (but not linearly) proportional to pressure and inversely proportional to temperature.
smiles,measurement,setting,value
O=C=O [Carbon dioxide],virus inactivation of HIV viruses associated with medical device components,[1],quite effective
"FC(F)Cl [Freon-22, chlorodifluoromethane]",logs of EMC inactivated (on the average),[2],~6 logs
"FC(F)F [Freon-23, trifluoromethane]",logs of EMC inactivated (on the average),[2],~3 logs
"[N-]=[N+]=O [N20, Nitrous Oxide]",inactivation of MuLV,[3],equally effective

# Reference: patent US20220111094A1, “PATHOGEN DECONTAMINATION OF PERSONAL PROTECTIVE EQUIPMENT (PPE), FACE FILTERING R[…] (FFR) AND SINGLE USE MEDICAL DEVICES (SUD)” (priority 2020, published 2022)
